From patent US20080242870A1 (priority 2006, published 2008) come the findings set out here.

Where two headings read alike, the source gives them in different places.

Series [1] in a line: Absorption spectrum of perylene diimide (Example 5). The class given is physicochemical. Particulars: CH2Cl2.
The nature of series [2]: Emission spectrum and quantum yield of perylene diimide (Example 5). The class given is physicochemical.
Series [3] can be described thus: Fluorescence lifetime by TCSPC (Example 5). The class given is physicochemical. As to conditions: room temperature, CH2Cl2.
Procedure: Luminescence lifetimes were measured with an IBH time-correlated single photon counting (TCSPC) system equipped with an IBH Model TBX-04 Photon Detection Module. The excitation source for the TCSPC measurements was a pulsed LED (IBH NanoLED, 455 nm, 1.3 ns pulse duration or 403 nm, <200 ps pulse duration) with a repetition rate of 1 MHz. All data was analyzed by iterative reconvolution of the decay profile (10,000 counts at the peak channel) with the instrument response function using software provided by the instrument manufacturer.
A short description of a further series: Solubility. As to conditions: polar organic solvents.
Series [4] is described as follows: Sodium sensing: quantum yield vs sodium perchlorate concentration. Particulars: in acetonitrile. As for the experimental part: The benzo 15-crown-5 anthracene diimide derivative was synthesized because crown ethers are known for their ability to bind with metals. […] The extinction coefficient, ∈, was determined to be 16,000 M^−1 cm^−1 and the quantum yield, Φ, 0.02 (both were measured in acetonitrile). The emission spectrum for this compound was more complicated than the others. An excimer effect was evident in higher concentration samples and was more prominent in non-polar solvents. The excimer complicated the lifetime in toluene with a short component for the excited dimer state.

Test in series [5]: not given
This is another data set of the same source.

The nature of series [6]: Fluorescence quenching by 2,4-dinitrotoluene (Stern-Volmer). As to conditions: concentrated and dilute solutions in toluene.

As to `CCCCCCCCn1c(=O)c2c(-c3ccccc3)c3cccc4c3c(c3cccc5c(-c6ccccc6)c6c(=O)n(CCCCCCCC)c(=O)c6c4c53)c2c1=O` [Compound 59, N,N′-Bis(octyl)-3,9-bis(phenyl)-perylene-1,2,7,8-tetracarboxyl diimide], the extinction coefficient in series [1] (at absorption λmax) is 29,000 M^−1 cm^−1. In addition, in series [1] (room temperature), the “absorption λmax” value is given as ~491 nm. This compound also registered a quantum yield in series [2] (measured against fluorescein) of 0.67. Besides, the “Stokes' shift” value in series [2] (room temperature, CH2Cl2) amounted to 26 nm. Also, the “fluorescence λmax” value in series [2] (room temperature, CH2Cl2, 425 nm excit.) stood at 517 nm. This compound also gave a single exponential lifetime in series [3] of 5.01 ns. Moreover, the solubility entry in the series “Solubility” is on record as “soluble in polar organic solvents”.
Regarding “N,N′-Bis(benzo 15-crown-5)-1,5-bis(phenyl)anthracene-2,3,6,7-tetracarboxyl diimide”, the sodium sensing entry in series [4] is “effective sensor of sodium perchlorate”. Moreover, for the setting “in acetonitrile”, the “extinction coefficient, ∈” value is reported as 16,000 M^−1 cm^−1. The “quantum yield, Φ” value in series [5] (in acetonitrile) is recorded as 0.02.
As for “N,N′-Bis(p-triphenyl amine)-1,5-bis(phenyl)anthracene-2,3,6,7-tetracarboxyl diimide”, the “2,4-dinitrotoluene sensing (quenching)” value in series [6] is “effective 2,4-dinitrotoluene (DNT) sensor”. In addition, the “extinction coefficient, ∈” value (in toluene) is on record as 22,000 M^−1 cm^−1. In addition, the “quantum yield, Φ” value in series [5] (in toluene) is 0.09.
